Test results published in publication PMC5384001 (Scientific Reports, 2017).
Substitutions are numbered along the chain they refer to. Several values for one entry are separate records, joined by “and”; a condition that tells them apart may be missing. Equal values may be shown once.

Key:
[1] = target: T1, GluD2-Lc(Y543Q)-(HS2)GluN1 (Rattus norvegicus, UniProt Q63226, A654T/A766F/D767R/N763E/R768S/T764L/V761T/V765F/Y543Q); test: Two-electrode voltage clamp in Xenopus oocytes, inhibition of spontaneous currents; assay type: cell-based; settings: fraction of spontaneous current inhibited by saturating D-serine
T1 construct: the function of full-length receptors as well, we introduced them into the GluD2 lurcher mutant (GluD2-Lc); expressed in transfected cells; host or cells: Xenopus laevis oocytes injected with cRNA
T1 sequence (Q63226 24-1007 Y543Q/A654T/V761T/N763E/T764L/V765F/A766F/D767R/R768S): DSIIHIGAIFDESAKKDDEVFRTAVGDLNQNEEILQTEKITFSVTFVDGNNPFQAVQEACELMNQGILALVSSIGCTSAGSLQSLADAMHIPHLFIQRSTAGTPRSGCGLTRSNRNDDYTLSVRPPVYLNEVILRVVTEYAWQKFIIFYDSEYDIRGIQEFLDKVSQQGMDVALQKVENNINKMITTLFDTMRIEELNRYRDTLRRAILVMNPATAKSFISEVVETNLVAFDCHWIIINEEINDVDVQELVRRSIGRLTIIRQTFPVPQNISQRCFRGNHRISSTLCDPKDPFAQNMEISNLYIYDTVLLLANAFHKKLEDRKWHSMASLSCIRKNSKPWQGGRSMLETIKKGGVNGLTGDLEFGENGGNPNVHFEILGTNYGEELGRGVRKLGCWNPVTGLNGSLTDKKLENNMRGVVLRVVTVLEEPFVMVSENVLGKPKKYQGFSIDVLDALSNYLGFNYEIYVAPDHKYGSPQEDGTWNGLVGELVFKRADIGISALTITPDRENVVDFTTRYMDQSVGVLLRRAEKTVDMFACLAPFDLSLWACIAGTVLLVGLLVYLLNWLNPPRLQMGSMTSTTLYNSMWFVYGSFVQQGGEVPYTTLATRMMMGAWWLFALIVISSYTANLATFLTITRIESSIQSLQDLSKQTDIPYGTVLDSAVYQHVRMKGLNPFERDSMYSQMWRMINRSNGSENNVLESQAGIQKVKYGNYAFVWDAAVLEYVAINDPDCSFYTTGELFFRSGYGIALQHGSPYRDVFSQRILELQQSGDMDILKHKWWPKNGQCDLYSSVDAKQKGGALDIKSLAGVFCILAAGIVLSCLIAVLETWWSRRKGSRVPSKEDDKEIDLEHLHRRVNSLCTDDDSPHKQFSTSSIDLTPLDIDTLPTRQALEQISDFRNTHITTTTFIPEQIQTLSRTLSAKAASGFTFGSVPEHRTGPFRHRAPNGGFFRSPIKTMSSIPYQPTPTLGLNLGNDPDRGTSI
From the text: (§1) All cDNAs for expression in Xenopus oocytes were cloned into the vector pSGEM[30]. Point mutants of GluD2-Lc were constructed by overlap extension PCR with mutagenic oligonucleotide primers. The GluD2-Lc-(H)GluN1 chimera was constructed by transferring the S1- and S2-encoding sequences from GluD2-LBD-(H)GluN1 to GluD2-Lc via overlap extension PCR using tail primers. The S1 and S2 sequences were transferred separately, yielding GluD2-Lc-(HS1)GluN1 and GluD2-Lc-(HS2)GluN1 constructs. GluD2-Lc-(H)GluN1 was then produced from these by another overlap extension PCR. Complementary RNA (cRNA) for injection into oocytes was synthesised from 1 μg of linearised template DNA with the mMESSAGE mMACHINE in vitro transcription kit (Ambion, Austin, TX, USA).
(§2) Oocytes were obtained by surgically removing parts of the ovaries from Xenopus laevis (Nasco, Fort Atkinson, WI, USA) anaesthetised with 1.5 g/L 3-aminobenzoic acid ethylester (Sigma, Taufkirchen, Germany). […] Oocytes were injected with 11 ng cRNA (10 ng of each cRNA for co-expression of GluN1 and GluN2A) using a nanoliter injector (WPI, Sarasota, FL, USA). Four days after cRNA injection, current responses were recorded under voltage clamp at –70 mV with a Turbo Tec-10CD amplifier (npi electronic, Tamm, Germany) controlled by Patchmaster software (HEKA, Lambrecht, Germany). Currents were filtered with a 20 Hz low-pass filter and then digitised with a sampling rate of 50 Hz. Recording electrodes were pulled from borosilicate glass (Hilgenberg, Malsfeld, Germany) with an L/M-3P-A vertical pipette puller (List-Medical), filled with 3 M KCl, and had resistances of 0.5–5 MΩ (voltage electrode) or 0.5–1.5 MΩ (current electrode). Recordings were performed in a 50 μL chamber under constant superfusion with extracellular solution at a flow rate of 3–5 mL/min. […] Finally, Ba-NFR and then NMDGR were applied again to check for reversibility.

[2] = target: T2, GluD2-Lc-(H)GluN1 (Rattus norvegicus, UniProt Q63226, A654T/A766F/D542Y/D767R/N763E/R768S/S544G/T764L/V761T/V765F/Y543Q); test: as above; assay type: cell-based
T2 construct: the function of full-length receptors as well, we introduced them into the GluD2 lurcher mutant (GluD2-Lc); expressed in transfected cells; host or cells: Xenopus laevis oocytes injected with cRNA
T2 sequence (Q63226 24-1007 D542Y/Y543Q/S544G/A654T/V761T/N763E/T764L/V765F/A766F/D767R/R768S): T1 sequence (Q63226 24-1007 Y543Q/A654T/V761T/N763E/T764L/V765F/A766F/D767R/R768S) with D519Y, S521G
From the text: as §1, §2

For `N[C@H](CO)C(=O)O` [D-serine], the “D-serine efficacy Mean ± SEM” value [1] was 24.1 ± 0.4%, the “D-serine concentration of maximum inhibition of spontaneous currents” value ([2]; bell-shaped concentration–response curve) was 10 µM and the “D-serine efficacy Mean ± SEM” value ([2]; fraction of spontaneous current inhibited by saturating D-serine) was 13% and 12.9 ± 0.8%. For the same compound, the “maximal, absolute, D-serine-induced steady-state inhibition of spontaneous currents” value ([2]; n = 30) was 53 ± 8 nA.
